Results taken from patent US10239843B2 (CANCER RESEARCH TECHNOLOGY LIMITED, priority 2014, dated 2019).
Like-named read-outs stand apart in the source and are kept apart here.

Columns and labels:
Human Full Length PARG = Human Full Length PARG (Homo sapiens (Human), UniProt Q86W56); experiment: PARG enzyme assay (TR-FRET); assay type: biochemical
PARG in HeLa cell line = experiment: PARG cell assay (PAR chain immunofluorescence after MMS); assay type: cell-based; conditions: HeLa cells
Method in brief: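 HeLa cells were dosed with compound for 1 h, then given MMS at 50 μg/mL final for a further hour. Cells were methanol-fixed, permeabilised and stained overnight at 4° C with anti-PAR monoclonal antibody. Retained nuclear PAR chains, detected by indirect immunofluorescence, indicate PARG inhibition.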

[1] = Homo sapiens, MMS treatment, read-out: PARG Cell IC50
[2] = read-out: PARG Biochem IC50 Geomean
[3] = Homo sapiens, MMS 50 μg/mL, read-out: PARG Cell IC50 Geomean
[4] = MMS 50 μg/mL, read-out: PARG Cell IC50 Geomean
[5] = MMS treatment, read-out: PARG Cell IC50

Chain of Human Full Length PARG (Q86W56 whole entry): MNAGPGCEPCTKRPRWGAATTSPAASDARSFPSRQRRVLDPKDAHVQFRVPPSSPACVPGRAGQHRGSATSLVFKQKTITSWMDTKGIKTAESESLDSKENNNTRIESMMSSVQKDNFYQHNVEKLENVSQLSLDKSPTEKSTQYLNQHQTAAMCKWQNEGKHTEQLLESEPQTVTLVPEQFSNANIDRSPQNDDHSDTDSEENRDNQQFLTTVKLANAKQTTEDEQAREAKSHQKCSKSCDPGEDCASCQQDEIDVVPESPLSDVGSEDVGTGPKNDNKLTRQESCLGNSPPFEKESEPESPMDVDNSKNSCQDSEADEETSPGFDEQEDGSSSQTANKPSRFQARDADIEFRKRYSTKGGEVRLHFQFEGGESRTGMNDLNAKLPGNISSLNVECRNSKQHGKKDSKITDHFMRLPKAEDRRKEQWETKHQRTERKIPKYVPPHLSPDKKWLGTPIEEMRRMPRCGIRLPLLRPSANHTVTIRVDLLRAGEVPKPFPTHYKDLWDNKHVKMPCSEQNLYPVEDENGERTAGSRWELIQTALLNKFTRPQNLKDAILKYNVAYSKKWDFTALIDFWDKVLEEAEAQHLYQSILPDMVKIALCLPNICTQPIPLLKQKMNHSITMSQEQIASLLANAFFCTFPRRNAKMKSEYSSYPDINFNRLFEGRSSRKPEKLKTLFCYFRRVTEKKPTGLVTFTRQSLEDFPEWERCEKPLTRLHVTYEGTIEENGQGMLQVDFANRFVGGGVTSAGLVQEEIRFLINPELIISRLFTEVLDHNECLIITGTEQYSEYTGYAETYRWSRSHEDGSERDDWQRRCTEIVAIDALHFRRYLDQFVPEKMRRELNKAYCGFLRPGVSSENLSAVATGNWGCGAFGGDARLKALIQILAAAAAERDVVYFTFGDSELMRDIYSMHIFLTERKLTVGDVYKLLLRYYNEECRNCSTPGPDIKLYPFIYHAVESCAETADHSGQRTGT

| SMILES | IC50 (Human Full Length PARG; read-out: PARG Biochem IC50) [nM] | IC50 (PARG in HeLa cell line; [1]) [nM] | IC50 (Human Full Length PARG; [2]) [nM] | IC50 (PARG in HeLa cell line; [3]) [nM] | further results |
| --- | --- | --- | --- | --- | --- |
| Cn1cc(Cn2c(=O)c3cc(S(=O)(=O)NC4(CF)CC4)ccc3n(C)c2=O)cn1 [Example 408, N-[1-(Fluoromethyl)cyclopropyl]-1-methyl-3-[(1-methylpyrazol-4-yl)methyl]-2,4-dioxo-quinazoline-6-sulfonamide] | 648 | 287 |  |  |  |
| Cc1ncc(Cn2c(=O)[nH]c3ccc(S(=O)(=O)NC4(C#N)CC4)cc3c2=O)s1 [Example 386, N-(1-Cyanocyclopropyl)-3-[(2-methylthiazol-5-yl)methyl]-2,4-dioxo-1H-quinazoline-6-sulfonamide] |  |  | 369 | 8380 |  |
| Cc1cc(Cn2c(=O)c3cc(S(=O)(=O)NC4(C)CC4)ccc3n(CC3CCC3)c2=O)on1 [Example 288] |  |  | 175 |  | IC50 (PARG in HeLa cell line; [4]): 79 nM |
| Cc1cc(Cn2c(=O)c3cc(S(=O)(=O)NC4(C)CC4)ccc3n(CC3CCN(C)CC3)c2=O)on1 [Example 371] |  |  | 258 | 1110 |  |
| Cn1cc(Cn2c(=O)c3cc(S(=O)(=O)NC4(C)CC4)ccc3n(CC3COC3)c2=O)cn1 [Example 297] |  |  | 69 | 272 |  |
| Cn1cc(Cn2c(=O)c3cc(S(=O)(=O)NC4(CF)CC4)ccc3n(Cc3ccc(C#N)cc3)c2=O)cn1 [Example 543, 1-[(4-Cyanophenyl)methyl]-N-[1-(fluoromethyl)cyclopropyl]-3-[(1-methylpyrazol-4-yl)methyl]-2,4-dioxo-quinazoline-6-sulfonamide] | 58 | 70 |  |  |  |
| Cc1cc(Cn2c(=O)n(Cc3cnn(C)c3)c(=O)c3cc(S(=O)(=O)NC4(C)CC4)c(F)cc32)on1 [Example 391, 7-Fluoro-N-(1-methylcyclopropyl)-1-[(3-methylisoxazol-5-yl)methyl]-3-[(1-methylpyrazol-4-yl)methyl]-2,4-dioxo-quinazoline-6-sulfonamide] |  |  | 24 |  | IC50 (PARG in HeLa cell line; [4]): 67 nM |
| Cn1cc(Cn2c(=O)c3cc(S(=O)(=O)NC4(C)CC4)ccc3n(CCC(N)=O)c2=O)cn1 [Example 273] |  |  | 291 | 14500 |  |
| Cn1cc(Cn2c(=O)c3cc(S(=O)(=O)NC4(C)CC4)ccc3n(Cc3cnn(C)c3)c2=O)cn1 [Example 328] |  |  | 48 | 116 |  |
| CCC(=O)Cn1c(=O)n(Cc2cnn(C)c2)c(=O)c2cc(S(=O)(=O)NC3(CF)CC3)ccc21 [Example 620, N-[1-(Fluoromethyl)cyclopropyl]-3-[(1-methylpyrazol-4-yl)methyl]-2,4-dioxo-1-(2-oxobutyl)quinazoline-6-sulfonamide] | 144 | 238 |  |  |  |
| Cn1cc(Cn2c(=O)c3cc(S(=O)(=O)NC4(CF)CC4)ccc3n(Cc3ccno3)c2=O)cn1 [Example 585, N-[1-(Fluoromethyl)cyclopropyl]-1-(isoxazol-5-ylmethyl)-3-[(1-methylpyrazol-4-yl)methyl]-2,4-dioxo-quinazoline-6-sulfonamide] | 38 | 52 |  |  |  |
| Cc1ncc(Cn2c(=O)n(Cc3cnn(C)c3)c(=O)c3cc(S(=O)(=O)NC4(CF)CC4)ccc32)s1 [Example 594, N-[1-(Fluoromethyl)cyclopropyl]-3-[(1-methylpyrazol-4-yl)methyl]-1-[(2-methylthiazol-5-yl)methyl]-2,4-dioxo-quinazoline-6-sulfonamide] | 25 | 22 |  |  |  |
| Cc1cc(Cn2c(=O)c3cc(S(=O)(=O)NC4(CF)CC4)ccc3n(Cc3cc(C)no3)c2=O)on1 [Example 521, N-[1-(Fluoromethyl)cyclopropyl]-1,3-bis[(3-methylisoxazol-5-yl)methyl]-2,4-dioxo-quinazoline-6-sulfonamide] | 54 | 92 |  |  |  |
| CCCCn1c(=O)n(Cc2cc(C)no2)c(=O)c2cc(S(=O)(=O)NC3(CF)CC3)ccc21 [Example 536, 1-Butyl-N-[1-(fluoromethyl)cyclopropyl]-3-[(3-methylisoxazol-5-yl)methyl]-2,4-dioxo-quinazoline-6-sulfonamide] | 261 |  |  |  | IC50 (PARG in HeLa cell line; [5]): 376 nM |
| Cc1nc(C)c(Cn2c(=O)n(C)c(=O)c3cc(S(=O)(=O)NC4CC4)ccc32)s1 [Example 201] |  |  | 190 | 224 |  |
| COc1cccc(Cn2c(=O)n(CC#N)c(=O)c3cc(S(=O)(=O)NC4(C)CC4)ccc32)c1 [Example 187] |  |  | 467 | 343 |  |
| COCCn1c(=O)n(Cc2cnn(C)c2)c(=O)c2cc(S(=O)(=O)NC3(CF)CC3)ccc21 [Example 462, N-[1-(Fluoromethyl)cyclopropyl]-1-(2-methoxyethyl)-3-[(1-methylpyrazol-4-yl)methyl]-2,4-dioxo-quinazoline-6-sulfonamide] | 244 | 322 |  |  |  |
| Cc1cc(Cn2c(=O)c3cc(S(=O)(=O)NC4(C)CC4)ccc3n(Cc3cnn(C(C)C)c3)c2=O)on1 [Example 473, 1-[(1-Isopropylpyrazol-4-yl)methyl]-N-(1-methylcyclopropyl)-3-[(3-methylisoxazol-5-yl)methyl]-2,4-dioxo-quinazoline-6-sulfonamide] | 196 |  |  |  | IC50 (PARG in HeLa cell line; [5]): 144 nM |
| Cc1cc(Cn2c(=O)c3cc(S(=O)(=O)NC4(C)CC4)ccc3n(Cc3cnn(C)c3)c2=O)on1 [Example 330] |  |  | 96 | 164 |  |

| SMILES | IC50 (Human Full Length PARG; read-out: PARG Biochem IC50) [nM] | IC50 (PARG in HeLa cell line; [1]) [nM] | IC50 (Human Full Length PARG; [2]) [nM] | IC50 (PARG in HeLa cell line; [3]) [nM] | further results |
| --- | --- | --- | --- | --- | --- |
| C#CCn1c(=O)n(Cc2c(C)noc2C)c(=O)c2cc(S(=O)(=O)NC3(C)CC3)ccc21 [Example 159] |  |  | 109 | 153 |  |
| Cn1cc(Cn2c(=O)c3cc(S(=O)(=O)NC4(C)CC4)ccc3n(CC3CCO3)c2=O)cn1 (centres unmarked) [Example 343] |  |  | 195 | 351 |  |
| Cn1cc(Cn2c(=O)[nH]c3ccc(S(=O)(=O)NC4(C=O)CC4)cc3c2=O)cn1 [Example 479, N-(1-Formylcyclopropyl)-3-[(1-methylpyrazol-4-yl)methyl]-2,4-dioxo-1H-quinazoline-6-sulfonamide] | 10200 | 3650 |  |  |  |
| COCCOCCn1c(=O)n(Cc2cnn(C)c2)c(=O)c2cc(S(=O)(=O)NC3(CF)CC3)ccc21 [Example 618, N-[1-(Fluoromethyl)cyclopropyl]-1-[2-(2-methoxyethoxy)ethyl]-3-[(1-methylpyrazol-4-yl)methyl]-2,4-dioxo-quinazoline-6-sulfonamide] | 247 |  |  |  | IC50 (PARG in HeLa cell line; [5]): 325 nM |
| Cc1cc(Cn2c(=O)c3cc(S(=O)(=O)NC4(C)CC4)ccc3n(CC3CCCN3C)c2=O)on1 (centres unmarked) [Example 249] |  |  | 402 | 315 |  |
| Cc1cc(Cn2c(=O)c3cc(S(=O)(=O)NC4(C)CC4)ccc3n(CCCN(C)C)c2=O)on1 [Example 247] |  |  | 404 | 310 |  |
| Cn1cc(Cn2c(=O)c3cc(S(=O)(=O)NC4(CF)CC4)ccc3n(CC#N)c2=O)cn1 [Example 439, 1-(Cyanomethyl)-N-[1-(fluoromethyl)cyclopropyl]-3-[(1-methylpyrazol-4-yl)methyl]-2,4-dioxo-quinazoline-6-sulfonamide] | 310 | 420 |  |  |  |
| Cc1cc(Cn2c(=O)c3cc(S(=O)(=O)NC4(C)CC4)ccc3n(CCCC(C)C)c2=O)on1 [Example 474, 1-Isohexyl-N-(1-methylcyclopropyl)-3-[(3-methylisoxazol-5-yl)methyl]-2,4-dioxo-quinazoline-6-sulfonamide] | 331 | 548 |  |  |  |
| CCn1c(=O)n(Cc2cnn(C)c2)c(=O)c2cc(S(=O)(=O)NC3(C)CC3)c(F)cc21 [Example 389, 1-Ethyl-7-fluoro-N-(1-methylcyclopropyl)-3-[(1-methylpyrazol-4-yl)methyl]-2,4-dioxo-quinazoline-6-sulfonamide] |  |  | 60 | 79 |  |
| Cn1cc(Cn2c(=O)c3cc(S(=O)(=O)NC4(C)CC4)ccc3n(CCN3CCCC3)c2=O)cn1 [Example 272] |  |  | 317 | 467 |  |
| Cn1cc(Cn2c(=O)[nH]c3ccc(S(=O)(=O)NC4(CF)CC4)cc3c2=O)cn1 [Example 416, N-[1-(Fluoromethyl)cyclopropyl]-3-[(1-methylpyrazol-4-yl)methyl]-2,4-dioxo-1H-quinazoline-6-sulfonamide] | 430 |  |  |  | IC50 (PARG in HeLa cell line; [5]): 1320 nM |
| Cn1cc(Cn2c(=O)c3cc(S(=O)(=O)NC4(CF)CC4)ccc3n(Cc3cnn(C)c3)c2=O)cn1 [Example 595, N-[1-(Fluoromethyl)cyclopropyl]-1,3-bis[(1-methylpyrazol-4-yl)methyl]-2,4-dioxo-quinazoline-6-sulfonamide] | 48 | 134 |  |  |  |
| CC[C@H](C)Cn1c(=O)n(Cc2cc(C)no2)c(=O)c2cc(S(=O)(=O)NC3(C)CC3)ccc21 [Example 466, 1-[(2S)-2-Methylbutyl]-N-(1-methylcyclopropyl)-3-[(3-methylisoxazol-5-yl)methyl]-2,4-dioxo-quinazoline-6-sulfonamide] | 274 |  |  |  | IC50 (PARG in HeLa cell line; [5]): 232 nM |
| Cn1cc(Cn2c(=O)c3cc(S(=O)(=O)NC4(C)CC4)ccc3n(CC3CCCCC3)c2=O)cn1 [Example 280] |  |  | 177 | 103 |  |
| Cc1cc(Cn2c(=O)c3cc(S(=O)(=O)NC4(C)CC4)ccc3n(CC3CCCCO3)c2=O)on1 (centres unmarked) [Example 266] |  |  | 296 |  | IC50 (PARG in HeLa cell line; [4]): 214 nM |
| Cc1cc(CN2C(=O)c3cccc4cc(S(=O)(=O)NC5(C)CC5)cc(c34)C2=O)on1 [Example 464, N-(1-Methylcyclopropyl)-2-[(3-methylisoxazol-5-yl)methyl]-1,3-dioxo-benzo[de]isoquinoline-5-sulfonamide] | 1040 | 1080 |  |  |  |
| Cc1cc(Cn2c(=O)c3cc(S(=O)(=O)NC4(C)CC4)ccc3n(CC3CC3)c2=O)on1 [Example 197] |  |  | 55 | 49 |  |
| Cn1cc(Cn2c(=O)c3cc(S(=O)(=O)NC4(CF)CC4)ccc3n(CCc3ccccn3)c2=O)cn1 [Example 566, N-[1-(Fluoromethyl)cyclopropyl]-3-[(1-methylpyrazol-4-yl)methyl]-2,4-dioxo-1-[2-(2-pyridyl)ethyl]quinazoline-6-sulfonamide] | 687 |  |  |  | IC50 (PARG in HeLa cell line; [5]): 562 nM |
